The text below walks through data of patent publication US20240383843A1, “MC3-Type Lipids” (NanoVation Therapeutics Inc., priority 2021, published 2024).

Test [1] relates to 22Rv1 cells modified to stably express luciferase. In words: Luciferase knockdown by siRNA-containing LNPs in 22Rv1 cells stably expressing luciferase. Type of test: cell-based. The following applies: Homo sapiens, siRNA-LNP 50/10/38.5/1.5 mol %, N/P 3, read-out: half maximal effective siRNA concentration (EC50). Here is the method:
The LNPs contain 50/10/38.5/1.5 mol % of ionizable lipid/DSPC/chol/PEG-DMG (N/P=3) and the siRNA encodes luciferase.
An siRNA targeted against firefly luciferase purchased from Integrated DNA Technologies (IDT, Coralville, IA) was used to assess ability of LNP to knockdown firefly luciferase in a cell line.
LNP formulations containing the ionizable lipids, nor-MC3 or MC3, DSPC, cholesterol, and PEG-DMG were prepared containing siRNA encoding luciferase as described above. The lipid nanoparticles comprise 50/10/38.5/1.5 mol % of ionizable lipid/DSPC/chol/PEG-DMG and the nitrogen-to-phosphorus ratio (N/P) was 3.

Test [2] deals with FVII gene. The following applies: mice, siRNA formulation; Jayaraman et al., 2012; cited from earlier work.

≈ marks a conversion by molar mass, not a printed value.

As to `CCCCC/C=C\C/C=C\CCCCCCCC(CCCCCCC/C=C\C/C=C\CCCCC)OC(=O)CCCN(C)C` [nor-MC3, (6Z,9Z,26Z,29Z)-Pentatriaconta-6,9,26,29-tetraen-18-yl 4-(dimethylamino)butanoate], in test [1], the EC50 came to 0.164 µg/mL (≈ 0.268 µM). As for `CCCCC/C=C\C/C=C\CCCCCCCCC1(CCCCCCCC/C=C\C/C=C\CCCCC)OCC(CCN(C)C)O1` (centres unmarked) [KC2], in test [2], the ED50 for FVII gene silencing was 0.1 mg/kg.
